Experiment: Solubility in o-dichlorobenzene (saturated solution, HPLC with standard curves)
Assay type: physicochemical
Details: saturated o-dichlorobenzene solution at 25° C., filtered 0.45 μm, HPLC 254 nm
Experimental: Solubilities of the fullerene derivatives having the formulae (1a) to (5a) of the present invention in Examples 1 to 5 and the fullero pyrrolidine in Application Examples 1 to 5 in o-dichlorobenzene were evaluated by the following method. A 0.1 mM o-dichlorobenzene solution and a 1.0 mM o-dichlorobenzene solution of each of the fullerene derivatives and the fullero pyrrolidine were prepared, and diluted fivefold with THF for HPLC. Ten (10) μL of the diluted solution was analyzed by a high-speed liquid chromatograph (LC-2010HT from Shimadzu Corp.; developing solvent: THF/ion-exchanged water=60/40; analysis time: 60 min; and detection wavelength: 254 nm) to prepare a chromatogram. Standard curves of the known concentrations (0.1 mM and 1.0 mM) were obtained therefrom. Next, a saturated o-dichlorobenzene solution of each of the fullerene derivatives and the fullero pyrrolidine were prepared at 25° C. After the saturated solution was filtered with a 0.45 μm filter, it was diluted hundredfold with THF for HPLC. Ten (10) μL of the diluted solution was analyzed by the same method mentioned above to prepare a chromatogram. A weight of the fullerene derivative dissolved in 1 mL of o-dichlorobenzene was determined as solubility using a peak area value of the chromatogram from the saturated solution and the standard curves.

CCCCCCCCCCCCC1N(c2ccc(OC(=O)OC(C)(C)C)cc2)CC23C4=c5c6c7c8c9c%10c%11c%12c%13c%14c%15c%16c(c5c(c%15%12)c%106)C12C1C%162CC15c1c6c%10c%12c%15c%16c%17c%18c%19c%20c%21c%22c%23c%24c(c1c%12c(c%21%24)c%19%15)C5C3C%23C4C7C%22C8C%20C%18C9C%11C%17C%13C%16C%10C%14C62 (stereo not drawn) [formula (5a)]
Weight of the fullerene derivative dissolved in 1 mL of o-dichlorobenzene: 280 mg

CC(C)(C)OC(=O)Oc1ccc(N2CC34C5=c6c7c8c9c%10c%11c%12c%13c%14c%15c%16c%17c(c6c(c%16%13)c%117)C3(C2C(C)(C)C)C2C%173CC26c2c7c%11c%13c%16c2c2c%17c%18c%19c%20c%21c%22c%23c(c-%13c%21c%18%16)C(C%14C%23C%12C%10C%22C%20C9C9C8C5C(C%17C%199)C4C26)C%11C%15C73)cc1 (stereo not drawn) [formula (3a)]
Weight of the fullerene derivative dissolved in 1 mL of o-dichlorobenzene: 107 mg

CCCCCCCCCC1N(c2ccc(OC(=O)OC(C)(C)C)cc2)CC23C4=c5c6c7c8c9c%10c%11c%12c%13c%14c%15c%16c(c5c(c%15%12)c%106)C12C1C%162CC15c1c6c%10c%12c%15c%16c%17c%18c%19c%20c%21c%22c%23c%24c(c1c%12c(c%21%24)c%19%15)C5C3C%23C4C7C%22C8C%20C%18C9C%11C%17C%13C%16C%10C%14C62 (stereo not drawn) [formula (4a)]
Weight of the fullerene derivative dissolved in 1 mL of o-dichlorobenzene: 159 mg
